Measured values reported in ChEMBL document CHEMBL1201862, “PubChem BioAssay data set” (2004).
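How tested: cells in 96-well plates exposed to compound for 48 hours at five concentrations. Abbreviation: GI50, concentration required for 50% inhibition of growth.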 Calls of active or inactive are those of the source. No stated cut-off is given here; in the data, active = GI50 up to about 1.1 µM and inactive = higher.

Legend:
Test in all cases: DTP human tumour cell line panel, 48 h
[1] = tested on: TK-10
[2] = tested on: HOP-62
[3] = tested on: HCT-15
[4] = tested on: LOX IMVI
[5] = tested on: A549
[6] = tested on: MDA-MB-435
[7] = tested on: HL-60
[8] = tested on: EKVX
[9] = tested on: IGROV-1
[10] = tested on: SW-620
[11] = tested on: U-251
[12] = tested on: SNB-75
[13] = tested on: HT-29
[14] = tested on: MOLT-4
[15] = tested on: SF-295
[16] = tested on: SN12C
[17] = tested on: M14
[18] = tested on: HOP-92
[19] = tested on: SR
[20] = tested on: T47D

Compound | GI50 [1] | GI50 [2] | GI50 [3] [µM] | GI50 [4] | GI50 [5] | GI50 [6] | GI50 [7] | GI50 [8] | GI50 [9] | GI50 [10] | GI50 [11] | GI50 [12] | GI50 [13] | GI50 [14] | GI50 [15] | GI50 [16] | GI50 [17] | GI50 [18] | GI50 [19] | GI50 [20]
CS(=O)(=O)c1nc(-c2cc3c(c(S(C)(=O)=O)n2)CCC3)cc2c1CCC2 | > 100 µM (inactive) | > 100 µM (inactive) | > 100 | > 100 µM (inactive) | > 100 µM (inactive) | > 100 µM (inactive) | > 100 µM (inactive) | > 100 µM (inactive) | 44.3 µM (inactive) | > 100 µM (inactive) | 47.3 µM (inactive) | 22.4 µM (inactive) | > 100 µM (inactive) | > 100 µM (inactive) | > 100 µM (inactive) | > 100 µM (inactive) | > 100 µM (inactive) |  |  | 
CNC(=O)c1cccc2c(Nc3ccc(NS(C)(=O)=O)cc3OC)c3cccc(C)c3nc12 | 1.24 µM (inactive) | 0.0244 µM (active) | 0.225 | 0.0488 µM (active) | 0.0151 µM (active) |  | 0.0131 µM (active) | 1.34 µM (inactive) | 1.31 µM (inactive) | 0.169 µM (active) | 0.0251 µM (active) | 0.122 µM (active) | 0.478 µM (active) | 0.0113 µM (active) | 0.0333 µM (active) | 0.0326 µM (active) | 0.102 µM (active) | 0.228 µM (active) | < 0.01 µM (active) | 
CC(=O)ONC(C(=O)C(C)(C)C)C(=O)C(C)(C)C | > 100 µM (inactive) | > 100 µM (inactive) | > 100 | > 100 µM (inactive) | > 100 µM (inactive) |  | > 100 µM (inactive) | > 100 µM (inactive) | > 100 µM (inactive) | > 100 µM (inactive) | > 100 µM (inactive) | > 100 µM (inactive) | > 100 µM (inactive) | > 100 µM (inactive) | > 100 µM (inactive) | > 100 µM (inactive) | > 100 µM (inactive) | > 100 µM (inactive) |  | > 100 µM (inactive)
NC(C(=O)OC(=O)c1ccccc1)C(=O)OC(=O)c1ccccc1 | > 100 µM (inactive) | > 100 µM (inactive) | > 100 | > 100 µM (inactive) | > 100 µM (inactive) | > 100 µM (inactive) |  | > 100 µM (inactive) |  | > 100 µM (inactive) | > 100 µM (inactive) | > 100 µM (inactive) | > 100 µM (inactive) | > 100 µM (inactive) | > 100 µM (inactive) | > 100 µM (inactive) | > 100 µM (inactive) |  |  | > 100 µM (inactive)
COc1cc(C2(C)SCCCS2)c(I)c(OC)c1OC | > 100 µM (inactive) | > 100 µM (inactive) | > 100 | > 100 µM (inactive) | > 100 µM (inactive) |  | > 100 µM (inactive) | > 100 µM (inactive) | > 100 µM (inactive) | > 100 µM (inactive) | > 100 µM (inactive) | > 100 µM (inactive) | > 100 µM (inactive) | > 100 µM (inactive) | > 100 µM (inactive) | > 100 µM (inactive) | > 100 µM (inactive) | > 100 µM (inactive) | > 100 µM (inactive) | 
CP(C)C.[Ag][I] | 41.5 µM (inactive) | > 100 µM (inactive) | > 100 | 25.5 µM (inactive) | > 100 µM (inactive) |  | > 100 µM (inactive) | > 100 µM (inactive) | 40.4 µM (inactive) | > 100 µM (inactive) | > 100 µM (inactive) | 20 µM (inactive) | > 100 µM (inactive) | > 100 µM (inactive) | > 100 µM (inactive) | > 100 µM (inactive) | > 100 µM (inactive) | 40.2 µM (inactive) | > 100 µM (inactive) | 
O=c1[nH]nc(Nc2ccc(Cl)cc2)c2nnn(-c3ccc([N+](=O)[O-])cc3)c12 | 24.7 µM (inactive) | 27.4 µM (inactive) | 14.4 | 14.5 µM (inactive) | 14.5 µM (inactive) | 30.1 µM (inactive) | 98.6 µM (inactive) | 30.6 µM (inactive) | 31.6 µM (inactive) | 30.9 µM (inactive) | 14.2 µM (inactive) | 39.8 µM (inactive) | 25.4 µM (inactive) | 8.63 µM (inactive) | 25.3 µM (inactive) | 26.9 µM (inactive) | 49.4 µM (inactive) | 14.5 µM (inactive) | 28.1 µM (inactive) | 
CCOC(=O)C1=C(O)C(=O)c2ccsc2C1=O | > 100 µM (inactive) | > 100 µM (inactive) | > 100 | > 100 µM (inactive) | > 100 µM (inactive) |  | > 100 µM (inactive) | > 100 µM (inactive) | > 100 µM (inactive) | > 100 µM (inactive) | > 100 µM (inactive) | > 100 µM (inactive) | > 100 µM (inactive) | > 100 µM (inactive) | > 100 µM (inactive) | > 100 µM (inactive) | > 100 µM (inactive) | > 100 µM (inactive) | > 100 µM (inactive) | 
C=C(C)C1Cc2c(cc(OC)c3c(=O)c4cccc(O)c4oc23)O1 (configuration not stated) | 19.9 µM (inactive) | 18.6 µM (inactive) | 47.6 | 5.7 µM (inactive) | 31.8 µM (inactive) |  | 39.9 µM (inactive) | > 100 µM (inactive) | 18.4 µM (inactive) | 53.1 µM (inactive) | 16.8 µM (inactive) | 16.3 µM (inactive) | 67.1 µM (inactive) | > 100 µM (inactive) | 17.3 µM (inactive) | 28.6 µM (inactive) | 24.1 µM (inactive) |  | 36.1 µM (inactive) | 16.6 µM (inactive)
CC(=O)OC1CC2C(C)(C)C(=O)C=C[C@]2(C)C2CCC3(C)C(c4ccoc4)C(=O)C4OC43[C@]12C (some centres not stated) | 36.6 µM (inactive) | 27.8 µM (inactive) | 14.4 | 13.2 µM (inactive) | 16.7 µM (inactive) |  | 12.4 µM (inactive) | 40.5 µM (inactive) | 21 µM (inactive) | 19.5 µM (inactive) | 18.8 µM (inactive) | 22.4 µM (inactive) | 16.3 µM (inactive) | 13.4 µM (inactive) | 16.9 µM (inactive) | 15.2 µM (inactive) | 17.3 µM (inactive) | 15.8 µM (inactive) | 11.5 µM (inactive) | 
O=C1/C(=C/c2cccs2)NC(=S)N1CN1CCOCC1 | 34.1 µM (inactive) | > 100 µM (inactive) | > 100 | > 100 µM (inactive) | > 100 µM (inactive) | > 100 µM (inactive) |  | > 100 µM (inactive) | > 100 µM (inactive) | > 100 µM (inactive) | > 100 µM (inactive) | > 100 µM (inactive) | > 100 µM (inactive) | > 100 µM (inactive) | > 100 µM (inactive) | > 100 µM (inactive) | > 100 µM (inactive) | > 100 µM (inactive) | > 100 µM (inactive) | 
CCCc1c(O)nc2ccccc2c1O | > 100 µM (inactive) | > 100 µM (inactive) | > 100 | > 100 µM (inactive) | > 100 µM (inactive) | > 100 µM (inactive) | > 100 µM (inactive) | > 100 µM (inactive) | > 100 µM (inactive) | > 100 µM (inactive) | > 100 µM (inactive) | > 100 µM (inactive) | > 100 µM (inactive) | > 100 µM (inactive) | > 100 µM (inactive) | > 100 µM (inactive) |  | > 100 µM (inactive) | > 100 µM (inactive) | 
OC[C@@H](O)[C@H](O)[C@@H](O)/C=N/Nc1ccc(Cl)nn1 | > 100 µM (inactive) | > 100 µM (inactive) | > 100 | > 100 µM (inactive) | > 100 µM (inactive) | > 100 µM (inactive) | > 100 µM (inactive) | > 100 µM (inactive) | > 100 µM (inactive) | > 100 µM (inactive) | > 100 µM (inactive) |  | > 100 µM (inactive) | > 100 µM (inactive) | > 100 µM (inactive) | > 100 µM (inactive) | > 100 µM (inactive) | > 100 µM (inactive) |  | > 100 µM (inactive)
Cn1c(=O)cc(N2CCCC2)[nH]c1=O | > 100 µM (inactive) | > 100 µM (inactive) | > 100 | > 100 µM (inactive) | > 100 µM (inactive) | > 100 µM (inactive) | > 100 µM (inactive) | > 100 µM (inactive) | > 100 µM (inactive) | > 100 µM (inactive) | > 100 µM (inactive) | > 100 µM (inactive) | > 100 µM (inactive) | > 100 µM (inactive) | > 100 µM (inactive) | > 100 µM (inactive) | > 100 µM (inactive) | > 100 µM (inactive) | > 100 µM (inactive) | 
CCC(C)[C@H](NC(=O)N[C@H](C)c1ccccc1)C(=O)OC (some centres not stated) | > 100 µM (inactive) | > 100 µM (inactive) | > 100 | > 100 µM (inactive) | > 100 µM (inactive) | > 100 µM (inactive) | > 100 µM (inactive) | > 100 µM (inactive) | > 100 µM (inactive) | > 100 µM (inactive) | > 100 µM (inactive) | > 100 µM (inactive) | > 100 µM (inactive) | > 100 µM (inactive) | > 100 µM (inactive) | > 100 µM (inactive) | > 100 µM (inactive) | > 100 µM (inactive) | > 100 µM (inactive) | 
C=C[C@@]12CCCCC1C/C(=C(/O)OC)C(=O)C2 (some centres not stated) | > 100 µM (inactive) | > 100 µM (inactive) |  | > 100 µM (inactive) | > 100 µM (inactive) |  | > 100 µM (inactive) | > 100 µM (inactive) | > 100 µM (inactive) | > 100 µM (inactive) | > 100 µM (inactive) | > 100 µM (inactive) | > 100 µM (inactive) | > 100 µM (inactive) | > 100 µM (inactive) | > 100 µM (inactive) | > 100 µM (inactive) | > 100 µM (inactive) | > 100 µM (inactive) | 
